One test relates to HCV GT1a replicon. Put plainly: HCV replicon assay, genotype 1a, in Huh-7 cells. It is filed as cell-based. As to conditions: Hepatitis C virus; Huh-7 cells stably transfected with HCV GT1a replicon, 72 hours incubation; luciferase or NEO gene qPCR readout; read-out: EC50 against HCV 1a genotype. Here is the method: (§1) HCV Replicon System was utilized as a screening model in the present disclosure to evaluate the antivirus effects of the compounds disclosed herein against HCV. HCV Replicon assay was first described in Science, 1999, 285 (5424), 110-3. […] To determine the potential anti-HCV effects of the test compounds, luciferase assay and antibiotic Neomycin resistance gene were tested according to the method described in Science. 1999 Jul. 2; 285 (5424), 110-3 and J. Virol. 2003 March; 77 (5), 3007-19.
(§2) In a word, the compounds disclosed herein were tested by using human hepatic carcinoma cell line Huh-7 which is transfected stably with HCV GT1a, GT1b or GT2a replicon respectively, and resistant cells of Y93H, L31F, P32L or I302V and wild-type cells HCV 1b. HCV Replicon System disclosed herein contains G418 resistance gene NEO and Luciferase Reporter Gene, and the level of HCV replication in host cells is detected and characterized by the expression level of the NEO gene or Luciferase Reporter Gene, so the effects of the compounds herein inhibit HCV replication can be evaluated in this system. In this article, a real-time quantitative polymerase chain reaction (qPCR) method was used to detect NEO gene expression level, and chemiluminescence method was used to test Luciferase Reporter Gene expression level.
(§3) The Huh-7 cells transfected with HCV replicons system were seeded into 96-well plates (8,000 cells in 125 μL/well) respectively; each test compound was diluted to desired concentration using 5-fold serial dilutions protocol, 10 doses in duplicate (initial concentration for 10 nM) and added to wells with POD™ 810 Plate Assembler. The plates were incubated in a CO2 incubator for 72 hours; after that, 40 μL of Luciferase assay substrate (Promega Bright-Glo) was added to each well, and detected by a chemiluminescence detection system (Topcount Microplate Scintillation and Luminescence Counter) 5 minutes later; the EC50 (half-maximal effective concentration, concentration for 50% of maximal effect) values of test compounds were analyzed by GraphPad Prism software. In this paper, experiments were repeated twice and set the wells without compounds as negative control.
as §3, with “hours;” for “hours; after that, 40 μL of Luciferase assay substrate (Promega Bright-Glo) was added to each well,”, “the expression level of the NEO gene expression with real-time quantitative PCR” for “by a chemiluminescence detection system (Topcount Microplate Scintillation and Luminescence Counter) 5 minutes”, “software, respectively.” for “software.”
For orientation: Replicon systems follow genome replication, usually without infectious particles.

Another test concerns HCV GT1b replicon. Put plainly: HCV replicon assay, genotype 1b, in Huh-7 cells. It is filed as cell-based. The note with it: Hepatitis C virus; Huh-7 cells stably transfected with HCV GT1b replicon, 72 hours incubation; luciferase or NEO gene qPCR readout; read-out: EC50 against HCV 1b genotype. Here is the method: as §1, §2, §3
as §3, with “hours;” for “hours; after that, 40 μL of Luciferase assay substrate (Promega Bright-Glo) was added to each well,”, “the expression level of the NEO gene expression with real-time quantitative PCR” for “by a chemiluminescence detection system (Topcount Microplate Scintillation and Luminescence Counter) 5 minutes”, “software, respectively.” for “software.”

The structures appear in SMILES notation.

The EC50 is the concentration at which the effect is half-maximal. For `COC(=O)N[C@H](C(=O)N1[C@@H](C)CC[C@H]1c1nc2ccc(-c3ccc(-c4ccc(-c5cnc([C@@H]6C[C@@H]7CCC[C@@H]7N6C(=O)[C@@H](NC(=O)OC)[C@@H](C)OC)[nH]5)cc4)c4c3C3CCC4C3)cc2[nH]1)C(C)C` (stereo partly shown) [Example 11], the EC50 in the test on HCV GT1a replicon worked out at 235 pM; with HCV GT1b replicon, 12 pM.

With `COC(=O)NC(C(=O)N1C[C@@H](C)CC1c1ncc(-c2ccc(-c3ccc(-c4ccc5nc([C@@H]6CC[C@H](C)N6C(=O)[C@@H](NC(=O)OC)C(C)C)[nH]c5c4)c4c3C3CCC4C3)cc2)[nH]1)c1ccccc1` (stereo partly shown) [Example 5], the EC50 in the test with HCV GT1a replicon was found to be 98 pM; in the test with HCV GT1b replicon, 7 pM.

As to `COC(=O)N[C@H](C(=O)N1C[C@@H](C)C[C@H]1c1ncc(-c2ccc(-c3ccc(-c4ccc5nc([C@@H]6CC[C@H](C)N6C(=O)[C@@H](NC(=O)OC)C6CCOCC6)[nH]c5c4)c4c3C3CCC4C3)cc2)[nH]1)C(C)C` (stereo partly shown) [Example 7], the results for the EC50 with HCV GT1a replicon and in the test on HCV GT1b replicon were 87 pM and 5 pM, respectively.

As for `COC(=O)N[C@H](C(=O)N1C[C@@H](C)C[C@H]1c1nc2ccc(-c3ccc(-c4ccc(-c5cnc(C6CC[C@H](C)N6C(=O)[C@@H](NC(=O)OC)C(C)C)[nH]5)cc4)c4c3C3CCC4C3)cc2[nH]1)C(C)C` (stereo partly shown) [Example 2], the EC50 in the test on HCV GT1a replicon and in the test on HCV GT1b replicon was 4 pM each time.

On to `COC[C@H]1C[C@@H](c2ncc(-c3ccc(-c4ccc(-c5ccc6nc([C@@H]7CC[C@H](C)N7C(=O)[C@@H](NC(=O)OC)C(C)C)[nH]c6c5)c5c4C4CCC5C4)cc3)[nH]2)N(C(=O)[C@@H](NC(=O)OC)C(C)C)C1` (stereo partly shown) [Example 9], for which the figures for the EC50 with HCV GT1a replicon and in the test on HCV GT1b replicon were 123 pM and 8 pM, respectively.

Consider `COC(=O)N[C@H](C(=O)N1C[C@@H](C)C[C@H]1c1ncc(-c2ccc(-c3ccc(-c4ccc5nc([C@@H]6CC[C@H](C)N6C(=O)[C@H](NC(=O)OC)c6ccccc6)[nH]c5c4)c4c3C3CCC4C3)cc2)[nH]1)C(C)C` (stereo partly shown) [Example 6], for which the EC50 with HCV GT1a replicon was 32 pM; in the test on HCV GT1b replicon it was 6 pM.

For the molecule `COC(=O)N[C@H](C(=O)N1C(c2ncc(-c3ccc(-c4ccc(-c5cnc([C@@H]6CC[C@H](C)N6C(=O)[C@@H](NC(=O)OC)C(C)C)[nH]5)c5c4C4CCC5C4)cc3)[nH]2)CC[C@@H]1C)C(C)C` (stereo partly shown) [Example 1], the EC50 in the test with HCV GT1a replicon was determined as 19 pM; in the test with HCV GT1b replicon it was 4 pM.

As to `COC(=O)N[C@H](C(=O)N1C(c2ncc(-c3ccc(-c4ccc(-c5ccc6nc([C@@H]7CC[C@H](C)N7C(=O)[C@@H](NC(=O)OC)C(C)C)[nH]c6c5)c5c4C4CCC5C4)cc3)[nH]2)CC[C@@H]1C)C(C)C` (stereo partly shown) [Example 3], the figures for the EC50 in the test with HCV GT1a replicon and in the test with HCV GT1b replicon were 8 pM and 5 pM, respectively.

As to `CC[C@H]1CC[C@@H](c2nc3ccc(-c4ccc(-c5ccc(-c6cnc([C@@H]7C[C@H](C)CN7C(=O)[C@@H](NC(=O)OC)C(C)C)[nH]6)cc5)c5c4C4CCC5C4)cc3[nH]2)N1C(=O)[C@@H](NC(=O)OC)C(C)C` (stereo partly shown) [Example 8], the results for the EC50 with HCV GT1a replicon and in the test with HCV GT1b replicon were 63 pM and 9 pM, respectively.

On to `CCC(C)[C@H](NC(=O)OC)C(=O)N1C[C@@H](CC)C[C@H]1c1ncc(-c2ccc(-c3ccc(-c4ccc5nc([C@@H]6CC[C@H](C)N6C(=O)[C@@H](NC(=O)OC)C(C)C)[nH]c5c4)c4c3C3CCC4C3)cc2)[nH]1` (stereo partly shown) [Example 10], for which the EC50 in the test on HCV GT1a replicon stood at 57 pM; in the test with HCV GT1b replicon it was 9 pM.

For `COC(=O)N[C@H](C(=O)N1C[C@@H](C)CC1c1ncc(-c2ccc(-c3ccc(-c4ccc5nc([C@@H]6CC[C@H](C)N6C(=O)[C@@H](NC(=O)OC)C(C)C)[nH]c5c4)c4c3C3CCC4C3)cc2)[nH]1)C(C)C` (stereo partly shown) [Example 4], the EC50 in the test on HCV GT1a replicon was determined as 131 pM; in the test on HCV GT1b replicon, 5 pM.

The values are drawn from patent US9738629B2, “Bridged ring compounds as Hepatitis C virus inhibitors, pharmaceutical compositions and uses thereof” (SUNSHINE LAKE PHARMA CO., LTD., priority 2014, dated 2017).
